The record followed here is article PMC12040169 (PLOS Biology, 2025).

This data set is described as follows: in vitro. The note with it: human, hela cells, % viability.

As a reminder, the viability is a read-out of living cells in per cent, often relative to untreated cells. Regarding `c1ccc(Oc2ccccc2-c2ccc(Nc3ccc(N4CCOCC4)cc3)nc2)cc1` [CBK036913], the viability at 28.5 h, 10 µM came out at 108%. As to `Cc1ccc(N(CC(=O)Nc2ccccc2F)S(=O)(=O)c2ccc(F)cc2)cc1` [CBK263333], the viability at 28.5 h, 10 µM amounted to 91.9%. Still for that read-out and setting: the figure for `Cc1nn(Cc2ccccc2)c(C)c1NC(=O)CSc1nc2sc3c(c2c(=O)n1C)CCC3` [CBK266069] is 96.4%; for `COC(C)CN(C)Cc1c(C)[nH]c2ccc(F)cc12` (centres unmarked) [CBK282035] it is 84.5%; for `CC(C)c1nsc(NS(=O)(=O)c2cccc(C(F)(F)F)c2)n1` [CBK038881] it is 98.3%. Still for that read-out and setting: the figure for `COc1ccc(CC(=O)N2CCC(Cc3ccccc3-c3ccccc3)(C(N)=O)CC2)cc1` [CBK285911] is 91.8%. Take `CCCn1c(NCc2cccc(OC)c2O)nc2ccccc21` [CBK133763]: the viability at 28.5 h, 10 µM is 96.4%.

`O=C(c1ccc(S(=O)(=O)N2CCCC2)cc1)N1CCN(C/C=C/c2ccccc2)CC1` [CBK263587]: the viability at 28.5 h, 10 µM was found to be 103%.

Regarding `CNS(=O)(=O)c1cc(C(=O)NCc2ccco2)ccc1OC` [CBK270180], the viability at 28.5 h, 10 µM amounted to 103%. The same measure, in the same setting: the figure for `CS(=O)(=O)N(Cc1ccccc1F)c1ccccc1C(=O)O` [CBK287239] is 104%; for `COc1ccc(-c2cc3cccnc3n2CC(=O)NC(C)C)cc1` [CBK285380] it is 100%. Take `Cn1nc(C2CCCC2)cc1[C@H]1CN2CC[C@H]1C[C@@H]2CNC(=O)N1CCOCC1` [CBK288740]: the viability at 28.5 h, 10 µM is 83.4%. Still for that read-out and setting: then `Cc1nnc2sc(-c3ccc(NC(=S)NC(=O)c4cc5ccccc5o4)cc3)nn12` [CBK266795], with 100%. On to `O=C(Cn1cnc2ccc(F)cc2c1=O)N1CCOC2CCCC21` (centres unmarked) [CBK304932], for which the viability at 28.5 h, 10 µM came out at 90.4%.

For the molecule `COc1ccccc1CNC(=O)c1ccc(Cl)c(S(=O)(=O)N2CCOCC2)c1` [CBK267060], the viability at 28.5 h, 10 µM amounted to 69.3%. On to `COC(=O)CNC(=O)c1ccncc1Br` [CBK057760], for which the viability at 28.5 h, 10 µM came out at 101%.

Regarding `Cc1ccccc1OCC(O)CNC(=O)c1ccccc1C(=O)O` (centres unmarked) [CBK264824], the viability at 28.5 h, 10 µM worked out at 94.8%. On the same count and under the same terms, then `CCOc1ccc(NC(=O)C2CCC(C)(C(=O)O)C2(C)C)cc1` (centres unmarked) [CBK295665], with 106%; and `O=C(Cc1c[nH]cn1)N1CCCC2(CCN(C(=O)c3cc(F)c(F)cc3F)C2)C1` (centres unmarked) [CBK137072], with 95.6%. On the same count and under the same terms, the figure for `CCCc1cc(C(=O)OC)c(NC(=O)C2CC=CCC2C(=O)O)s1` (centres unmarked) [CBK265397] is 117%; for `O=C1N[C@@H]2CCN(S(=O)(=O)c3cccs3)[C@@H]2C(=O)N1c1ccc(F)cc1` [CBK289326] it is 89.1%; for `O=C(NCc1cccnc1)/C(=N\O)c1ccccc1` [CBK288416] it is 102%. Consider `O=C(c1ccc2c(c1)ncn2CCO)N1CCC(c2ccccc2F)C1` (centres unmarked) [CBK307075], for which the viability at 28.5 h, 10 µM is 88.5%. For the molecule `Cc1ccnn1CCC(=O)N1CCCCC1c1nc2ccccc2[nH]1` (centres unmarked) [CBK282374], the viability at 28.5 h, 10 µM was 105%. Still for that read-out and setting: the figure for `CC(=O)Nc1ccc(OC(=O)CSc2nc(C)cc(C)n2)cc1` [CBK266707] is 86.6%; for `CC(NC(=O)N(CCCN)Cc1ccccc1C(F)(F)F)c1ccccc1` (centres unmarked) [CBK034668C] it is 99.9%. Regarding `COc1ccc(N2C(=O)/C(=C/c3ccc(OCC(=O)O)c(Cl)c3)C(=O)NC2=S)cc1` [CBK264018], the viability at 28.5 h, 10 µM (bulk resorufin, single well) amounted to 93.7%. As for `Clc1ccc(CN2CCN(c3nccnc3OCCN3CCOCC3)CC2)cc1` [CBK082887T], the viability at 28.5 h, 10 µM came out at 97.4%. Still for that read-out and setting: the figure for `COc1cc(-c2cc(N3CCN(Cc4cccnc4)CC3)n3nccc3n2)cc(OC)c1OC` [CBK037063] is 95.9%; for `CCCCSc1nc(N)cc(N2CCN3C(=O)CN(C)C(=O)C3C2)n1` (centres unmarked) [CBK306940] it is 82.4%; for `CCCc1nnc([C@H]2CCN(Cc3ccc(S(C)(=O)=O)cc3)C2)o1` [CBK289402] it is 100%. For the molecule `CNC(=O)CSc1nnc2[nH]c(=O)c(C)c(C)n12` [CBK287687], the viability at 28.5 h, 10 µM turned out to be 108%.

For the molecule `CC1CCCCN1S(=O)(=O)c1cccc2nonc12` (centres unmarked) [CBK261723], the viability at 28.5 h, 10 µM stood at 94.5%. Still for that read-out and setting: the figure for `CC(Nc1oc(-c2ccco2)nc1S(=O)(=O)c1ccc(F)cc1)c1ccccc1` (centres unmarked) [CBK267671] is 73.2%. For `O=C(NCC(c1ccccc1)c1ccccc1)N1CCN(c2ccc(F)cc2)CC1` [CBK156415], the viability at 28.5 h, 10 µM came to 97%. The same measure, in the same setting: then `CCNCc1cc2c(C)nn(-c3ccc(F)cc3)c2[nH]c1=O` [CBK283118], with 107%. Regarding `CC(=O)Nc1cccc(C(=O)NC2CC(=O)N(C3CCCCCC3)C2)c1` (centres unmarked) [CBK307455], the viability at 28.5 h, 10 µM was determined as 102%.

Turning to `OC1CCC(Nc2cncc(-c3ccc(F)cc3F)n2)CC1` (centres unmarked) [CBK065835], the viability at 28.5 h, 10 µM worked out at 107%. Same read-out and setting: then `O=C1NCC2(CCCN(C(=O)c3cccs3)C2)Oc2ccccc21` (centres unmarked) [CBK284900], with 102%; and `O=C(OCC(=O)c1cccc2ccccc12)c1cc2ccccc2cc1O` [CBK265526], with 102%.

For `O=C(O)CCNS(=O)(=O)c1ccc2[nH]c(=O)[nH]c2c1` [CBK266906], the viability at 28.5 h, 10 µM was found to be 91%.

As for `O=C(OCc1cc2ccccc2cn1)N1CCOCC1` [CBK200121], the viability at 28.5 h, 10 µM was 102%. Still for that read-out and setting: then `CCC1CCCCN1C(=O)c1cc2cc(Cl)ccc2[nH]1` (centres unmarked) [CBK074329], with 102%. Turning to `Cc1nn(C)c(C)c1NC(=O)CN1CCN(c2ccccc2Cl)CC1` [CBK306058], the viability at 28.5 h, 10 µM amounted to 82.6%.

For the molecule `Nc1ccc2cc3ccc(N)cc3nc2c1` [CBK024003G], the viability at 28.5 h, 10 µM is 71%.

For `O=C1CCc2c(Cc3c(Cl)cccc3Cl)c(O)nn21` [CBK083470], the viability at 28.5 h, 10 µM was 91.3%.

As to `Cc1nc(COc2ccccc2)nc(O)c1Cl` [CBK057810], the viability at 28.5 h, 10 µM was 95.2%.

In the case of `Cc1cc(C)nc(Nc2ccc(C3CCCN(C(=O)C(C)(C)c4cccc(F)c4)C3)nc2)n1` (centres unmarked) [CBK286007], the viability at 28.5 h, 10 µM turned out to be 85.2%. Still for that read-out and setting: the figure for `O=[N+]([O-])c1ccccc1S(=O)(=O)NCCSCc1c(F)cccc1Cl` [CBK265259] is 102%. With `CCCNC(=O)C[C@@H]1CCN(S(=O)(=O)c2c(C)noc2C)C[C@@H]1CC` [CBK288780], the viability at 28.5 h, 10 µM was 103%.

With `O=C(COc1ccc(S(=O)(=O)N2CCCCC2)cc1)NCc1ccccn1` [CBK268517], the viability at 28.5 h, 10 µM was 91.6%. For the molecule `Cc1nnc(NS(=O)(=O)c2ccc(OC(F)(F)F)cc2)s1` [CBK026673], the viability at 28.5 h, 10 µM was determined as 95.9%. Turning to `COCCN1C(=O)C2(CC(=O)N(CC(=O)C(C)(C)C)C2=O)c2ccccc21` (centres unmarked) [CBK075324], the viability at 28.5 h, 10 µM is 118%. The same measure, in the same setting: the figure for `Cc1ccccc1/N=C1/NC(=O)/C(=C/c2cccn2-c2ccc(S(N)(=O)=O)cc2)S1` [CBK265681] is 107%; for `CCN1CCN(C(=O)c2cnccn2)CC1` [CBK200373] it is 81.6%. Regarding `COCc1nnc(S)n1-c1cccc(OC)c1` [CBK288424], the viability at 28.5 h, 10 µM worked out at 87.7%.

With `CCC1c2ccc(C)n2CCN1Cc1cnc(C)n1C` (centres unmarked) [CBK283038], the viability at 28.5 h, 10 µM came to 105%. On to `O=C1CC(C(=O)N2CCc3ncc(Cl)cc3C2)c2ccccc2N1` (centres unmarked) [CBK284976], for which the viability at 28.5 h, 10 µM was found to be 94.4%.

Take `COc1cc(C(=O)NC(C)C(=O)NN)cc(OC)c1OC` (centres unmarked) [CBK262609]: the viability at 28.5 h, 10 µM came out at 106%. For the molecule `Cc1cccn2c(=O)cc(CN3CCCC(N4CCNC4=O)C3)nc12` (centres unmarked) [CBK304947], the viability at 28.5 h, 10 µM was found to be 88.4%. Still for that read-out and setting: the figure for `O=C(c1cnccc1C(F)(F)F)N1CCc2ccccc21` [CBK200401] is 112%.

Consider `CN(CC(=O)NCc1ccc(OCC(N)=O)cc1)C1CCCCC1` [CBK306331], for which the viability at 28.5 h, 10 µM came out at 81.7%.

As to `CCOC(=O)COc1ccc(C#N)cc1OCC` [CBK058937], the viability at 28.5 h, 10 µM came out at 103%. The same measure, in the same setting: then `O=C(Nc1ccccc1[N+](=O)[O-])c1cc(S(=O)(=O)Nc2ccccn2)ccc1Cl` [CBK263229], with 87.8%; and `Cc1cc(OCc2nnc(SCC(=O)Nc3ccc(I)cc3)n2C)ccc1Cl` [CBK268600], with 113%. `COCCN(C(=O)c1ccc2ccccc2c1)C1CCS(=O)(=O)C1` (centres unmarked) [CBK305758]: the viability at 28.5 h, 10 µM stood at 102%. As for `O=C(O)c1ccccc1NS(=O)(=O)Cc1ccccc1[N+](=O)[O-]` [CBK042373], the viability at 28.5 h, 10 µM stood at 91.9%. For `COc1ccc(CN2CCNC(=O)C2CC(=O)O)cc1OC` (centres unmarked) [CBK269991], the viability at 28.5 h, 10 µM is 102%. On the same count and under the same terms, the figure for `Cc1ccn(CCNC(=O)CCN2Cc3ccccc3C2=O)n1` [CBK282655] is 86.4%; for `c1csc(COc2nccnc2-c2ccsc2)c1` [CBK106770] it is 100%. As to `COc1cccc(C(=O)c2snc(Nc3ccc(F)cc3)c2N)c1` [CBK269173], the viability at 28.5 h, 10 µM turned out to be 117%. The same measure, in the same setting: then `CC1=C(C(=O)Nc2ccccc2)C(c2ccccc2)C(C#N)=C(SCc2ccncc2)N1` (centres unmarked) [CBK267448], with 90.2%. The same measure, in the same setting: the figure for `COc1ncc(-c2ccc(N3CCN(c4ccncc4)CC3)nc2)c(OC)n1` [CBK036848] is 99.1%; for `CC(Cn1cc(Cl)cn1)C(=O)NCCN(C)C1CCCCC1` (centres unmarked) [CBK282041] it is 86.1%; for `O=C1CCC(=O)N1CCOc1nccnc1N1CCN(CCc2ccc3ccccc3c2)CC1` [CBK084307] it is 96.4%. As for `Cc1cc(C)n(C(=O)CCNS(=O)(=O)c2ccc(Cl)cc2)n1` [CBK269348], the viability at 28.5 h, 10 µM was 111%.

Take `COc1ccc(N2CC(C(=O)N(C)CC(F)(F)F)CC2=O)cc1` (centres unmarked) [CBK281510]: the viability at 28.5 h, 10 µM is 98.2%.

As to `COc1ccc(-c2c(C)nn3c(=O)c(Cc4ccccc4)c(C)[nH]c23)cc1` [CBK266951], the viability at 28.5 h, 10 µM was 94.2%. As for `O=C(O)c1ccc(NC(=O)c2cn(-c3ccccc3)nc2-c2cccnc2)cc1` [CBK296122], the viability at 28.5 h, 10 µM is 102%. Same read-out and setting: the figure for `CCOCc1ccc(C(=O)N2CCNC(=O)C2Cc2ccc(-c3cccs3)cc2)cc1` (centres unmarked) [CBK285811] is 97.3%.
